This experiment deals with Uncinula necator. Nature of the experiment: Uncinula necator/Grape (powdery mildew on grape), preventive spray test on grape seedlings. The note with it: Erysiphe necator. Format: in vivo. An excerpt: A synergistic effect exists whenever the action of an active ingredient combination is greater than the sum of the actions of the individual components. The action to be expected E for a given active ingredient combination obeys the so-called COLBY formula and can be calculated as follows (COLBY, S. R. “Calculating synergistic and antagonistic responses of herbicide combination”, Weeds, Vol. 15, pages 20-22; 1967): ppm=milligrams of active ingredient (=a.i.) per liter of spray mixture X=% action by active ingredient (A) using p ppm of active ingredient Y=% action by active ingredient (B) using q ppm of active ingredient. According to COLBY, the expected (additive) action of active ingredients (A)+(B) using p+q ppm of active ingredient is [formula] If the action actually observed (O) is greater than the expected action (E), then the action of the combination is super-additive, i.e. there is a synergistic effect. In mathematical terms, synergism corresponds to a positive value for the difference of (O-E). In the case of purely complementary addition of activities (expected activity), said difference (O-E) is zero. A negative value of said difference (O-E) signals a loss of activity compared to the expected activity. Uncinula necator/Grape (Powdery Mildew on Grape) Five-week-old grape seedlings cv. Gutedel were treated with the formulated testcompound in a spray chamber. One day after application grape plants were inoculated by shaking plants infected with grape powdery mildew above the test plants. After an incubation period of 7 days at 26° C. and 60% r. h. under a light regime of 14/10 h (light/dark) the disease incidence was assessed.

The structures appear in SMILES notation. Like-named read-outs stand apart in the source and are kept apart here.

For the molecule `CON(C(=O)c1cn(C)nc1C(F)F)C(C)Cc1c(Cl)cc(Cl)cc1Cl` (stereo not shown) [Compound 1.001, 3-(difluoromethyl)-N-methoxy-1-methyl-N-[1-methyl-2-(2,4,6-trichlorophenyl)ethyl]pyrazole-4-carboxamide], under “168 h, Compound 1.001 0.1 mg/l alone, grape seedlings cv. Gutedel, 7 days after inoculation”, the inhibition at 0.1 µg/mL was determined as 90.4%. The inhibition at 10 pg/mL (Compound 1.001 0.00001 mg/l alone, read-out: Compound 1.001 inhibition (%)) is 0%. For the same molecule, the inhibition at 0.0001 µg/mL (Compound 1.001 0.0001 mg/l alone, read-out: Compound 1.001 inhibition (%)) stood at 0%. Also, the inhibition at 0.001 µg/mL (Compound 1.001 0.001 mg/l alone, read-out: Compound 1.001 inhibition (%)) is 1.7%. For the same molecule, the inhibition at 0.01 µg/mL (Compound 1.001 0.01 mg/l alone, read-out: Compound 1.001 inhibition (%)) turned out to be 12.9%.

For the molecule `COc1ccccc1N1CCS/C1=C(/C#N)Sc1cc(C(F)(F)F)ccc1F` [Flutianil, (2Z)-{[2-fluoro-5-(trifluoromethyl)phenyl]sulfanyl}[3-(2-methoxyphenyl)-1,3-thiazolidin-2-ylidene]acetonitrile], the inhibition at 1 pg/mL (Flutianil 0.000001 mg/l alone) is 0%. Moreover, for the setting “Flutianil 0.00001 mg/l alone, read-out: Flutianil Inhibition (%)”, the inhibition at 10 pg/mL is 1.3%. Also, under “Flutianil 0.0001 mg/l alone, read-out: Flutianil Inhibition (%)”, the inhibition at 0.0001 µg/mL amounted to 1%. Further, the inhibition at 0.001 µg/mL (Flutianil 0.001 mg/l alone, read-out: Flutianil Inhibition (%)) came to 26.8%. In addition, the inhibition at 0.01 µg/mL (Flutianil 0.01 mg/l alone, read-out: Flutianil Inhibition (%)) is 100%.

By inhibition is commonly meant the change of the read-out against control, counted positive when it falls.

Values taken from patent publication US20180244625A1, “FUNGICIDAL COMPOSITIONS” (Syngenta Participations AG, priority 2015, published 2018).
